The values below come from ChEMBL document CHEMBL1140287, “Reversion of human Pgp-dependent multidrug resistance by new sesquiterpenes from Zinowiewia costaricensis” (J Med Chem, 2005).

The subject of assay [1] is NIH3T3. In words: Concentration of compound inhibiting Pgp-mediated DNM transport in NIH3T3 cells transfected with human MDR1 protein. The assay is classed as functional, cell-based.
Assay [2] has as its system NIH3T3.
Assay [3] relates to NIH3T3. The source holds these as a separate data set.
The test system of assay [4] is NIH3T3. This is another data set of the same source.
Assay [5] has as its system NIH3T3. The source holds these as a separate data set.
The subject of assay [6] is NIH3T3. This is another data set of the same source.
Assay [7] deals with NIH3T3. The source holds these as a separate data set.

Turning to `CC(=O)OC[C@]12[C@H](OC(=O)c3ccccc3)C(=O)[C@@H]3[C@@H](OC(C)=O)[C@]1(OC3(C)C)[C@@](C)(O)C[C@H](OC(C)=O)[C@@H]2OC(=O)c1ccccc1`, the affinity in the assay on NIH3T3 [1], expressed as Ki, was 3010 nM.
Regarding `CC(=O)O[C@H]1C[C@](C)(O)[C@]23OC(C)(C)[C@H]([C@H](OC(=O)c4ccccc4)[C@H](OC(=O)c4ccccc4)[C@]2(C)[C@H]1OC(=O)c1ccccc1)[C@H]3OC(C)=O`, the Reversal ability came to 9.55 in the assay with NIH3T3 [2]; 87.04 in the assay on NIH3T3 [3]; 12.72 in the assay on NIH3T3 [4]; 8.26 in the assay with NIH3T3 [5]; 16.55 in the assay on NIH3T3 [6]; 90.39 in the assay on NIH3T3 [7]. This molecule also showed a Ki in the assay with NIH3T3 [1] of 913 nM.
For the molecule `CC(=O)OC[C@]12[C@H](OC(C)=O)C(=O)[C@@H]3[C@@H](OC(C)=O)[C@]1(OC3(C)C)[C@@](C)(O)[C@@H](OC(C)=O)[C@H](OC(C)=O)[C@@H]2OC(=O)c1ccccc1`, affinity in the assay on NIH3T3 [1] was put at a Ki of 6520 nM.
On the same count and under the same terms, as for `CC(=O)OC[C@]12[C@@H](OC(=O)c3ccccc3)C[C@@H]3[C@@H](OC(C)=O)[C@]1(OC3(C)C)[C@@](C)(O)C[C@H](OC(C)=O)[C@@H]2OC(C)=O`, the figure is 4390 nM.
As for `CC(=O)OC[C@]12[C@H](OC(=O)c3ccccc3)C(=O)[C@@H]3[C@@H](OC(C)=O)[C@]1(OC3(C)C)[C@H](C)C[C@H](OC(C)=O)[C@@H]2OC(C)=O`, the affinity with NIH3T3 [1], expressed as Ki, was 2540 nM.
Take `CC(=O)O[C@@H]1[C@H]2[C@H](O)[C@H](OC(=O)c3ccccc3)[C@]3(C)[C@@H](OC(=O)c4ccccc4)[C@@H](OC(=O)c4ccccc4)C[C@](C)(O)[C@@]13OC2(C)C`: the Reversal ability in the assay on NIH3T3 [2] is 11.13; with NIH3T3 [3], 41.23; in the assay with NIH3T3 [4], 15.86; with NIH3T3 [5], 6.32; in the assay on NIH3T3 [6] it was 5.38; in the assay on NIH3T3 [7], 57.32. Moreover, the inhibition constant (Ki) in the assay with NIH3T3 [1] came to 1210 nM.
For the molecule `CC(=O)OC[C@]12[C@H](OC(=O)c3ccccc3)C(=O)[C@@H]3[C@@H](OC(C)=O)[C@]1(OC3(C)C)[C@@](C)(O)C[C@H](OC(=O)c1ccccc1)[C@@H]2OC(=O)c1ccccc1`, the Reversal ability in the assay with NIH3T3 [2] is 15.41; in the assay on NIH3T3 [3], 8.09; in the assay with NIH3T3 [4], 16.64; with NIH3T3 [5] it was 9.93; in the assay on NIH3T3 [6], 7.31; in the assay on NIH3T3 [7], 33.1. Moreover, in the assay on NIH3T3 [1], the Ki was found to be 1030 nM.
The molecule `CC(=O)OC[C@]12[C@H](OC(=O)c3ccccc3)C(=O)[C@@H]3[C@@H](OC(C)=O)[C@]1(OC3(C)C)[C@H](C)C[C@H](OC(C)=O)[C@@H]2O` came in with a Ki in the assay with NIH3T3 [1] of 18400 nM. In other words, the double-digit micromolar range.
Molecule `CC(=O)O[C@H]1C[C@](C)(O)[C@]23OC(C)(C)[C@H]([C@H](OC(=O)c4ccccc4)[C@H](OC(=O)c4ccccc4)[C@]2(CO)[C@H]1OC(C)=O)[C@H]3OC(C)=O` had an inhibitory constant (Ki) in the assay with NIH3T3 [1] of 7040 nM.
The same measure, in the same setting: as for `CC(=O)OC[C@]12[C@H](OC(C)=O)C(=O)[C@@H]3[C@@H](OC(C)=O)[C@]1(OC3(C)C)[C@H](C)C[C@H](OC(C)=O)[C@@H]2OC(=O)c1ccccc1`, the figure is 5740 nM.
Consider `CC(=O)OC[C@]12[C@H](OC(=O)c3ccccc3)C(=O)[C@@H]3[C@@H](O)[C@]1(OC3(C)C)[C@@](C)(O)C[C@H](OC(C)=O)[C@@H]2OC(=O)c1ccccc1`, for which affinity in the assay with NIH3T3 [1] was put at a Ki of 3970 nM.
In the assay with NIH3T3 [1], `CC(=O)OC[C@]12[C@@H](OC(=O)c3ccccc3)C[C@@H]3[C@@H](OC(C)=O)[C@]1(OC3(C)C)[C@H](C)C[C@H](OC(C)=O)[C@@H]2OC(C)=O` registered a Ki of 2360 nM. This Ki lies about 1.7-fold lower than the previous one.
For the molecule `CC(=O)OC[C@]12[C@@H](OC(=O)c3ccccc3)[C@@H](OC(=O)c3ccccc3)[C@@H]3[C@@H](OC(C)=O)[C@]1(OC3(C)C)[C@@](C)(O)C[C@H](OC(C)=O)[C@@H]2OC(C)=O`, the Reversal ability was 10.78 with NIH3T3 [2]; 102.17 in the assay on NIH3T3 [3]; 11.13 with NIH3T3 [4]; 4.26 in the assay with NIH3T3 [5]; 6.23 with NIH3T3 [6]; 233.6 with NIH3T3 [7]. For the same molecule, the Ki in the assay on NIH3T3 [1] turned out to be 1740 nM.
In turn, `CC(=O)OC[C@]12[C@H](OC(C)=O)C(=O)[C@@H]3[C@@H](OC(C)=O)[C@]1(OC3(C)C)[C@H](C)C[C@H](OC(C)=O)[C@@H]2OC(C)=O` returned an inhibitory constant (Ki) in the assay on NIH3T3 [1] of 9830 nM.
As for `CC(=O)OC[C@]12[C@@H](OC(=O)c3ccccc3)[C@@H](OC(=O)c3ccccc3)[C@@H]3[C@@H](OC(C)=O)[C@]1(OC3(C)C)[C@H](C)C[C@H](OC(C)=O)[C@@H]2OC(C)=O`, the inhibition constant Ki in the assay with NIH3T3 [1] was 1710 nM.
On to `CC(=O)OC[C@]12[C@H](OC(=O)c3ccccc3)C(=O)[C@@H]3[C@@H](OC(C)=O)[C@]1(OC3(C)C)[C@H](C)C[C@H](OC(C)=O)[C@@H]2OC(=O)c1ccccc1`, for which the Reversal ability in the assay with NIH3T3 [2] came out at 6.21; in the assay on NIH3T3 [3], 213.64; in the assay with NIH3T3 [4] it was 11.75; in the assay on NIH3T3 [5], 4.21; in the assay with NIH3T3 [6] it was 5.72; in the assay with NIH3T3 [7], 233.37. In the assay with NIH3T3 [1], this molecule gave an inhibition constant Ki of 1630 nM.
In the case of `COc1ccc(CCN(C)CCCC(C#N)(c2ccc(OC)c(OC)c2)C(C)C)cc1OC` (configuration not stated), the Reversal ability with NIH3T3 [2] is 9.55; in the assay with NIH3T3 [3], 13.18; in the assay on NIH3T3 [4] it was 10.2; in the assay with NIH3T3 [5], 6.12; in the assay on NIH3T3 [6] it was 6.21; in the assay on NIH3T3 [7], 18.76.

In general, Ki refers to the dissociation constant of the complex between target and ligand, obtained from inhibition or displacement. Read a high Ki as a looser hold on the target.
